According to patent US11643428B2, “Therapeutic drug for neurodegenerative disease and application thereof” (SHANGHAI PHARMACEUTICALS HOLDING CO., LTD., priority 2018, dated 2023):

Experiments:
MPTP mice model = experiment: Pole-climbing test in MPTP model; assay type: in vivo, mouse; conditions: PL201+MPTP vs NS+MPTP group, 50 mg intragastrically once a day, day 3 of the experiment
Protocol: The mice were randomly divided into 4 groups: a group in which the mice was administrated with normal saline (NS), a MPTP model group in which the mice was intragastrical administrated with normal saline ([…]), a group in which the mice was intragastrical administrated with 50 mg of compound PL201 (PL201), and a MPTP model group in which the mice was intragastrical administrated with compound PL201 (PL201+MPTP).
11 animals were set in the group in which the mice was administrated with normal saline (NS), 14 animals were set in the MPTP model group in which the mice was intragastrical administrated with normal saline (NS+MPTP), 4 animals were set in the group in which the mice was intragastrically administrated with 50 mg of compound PL201 (PL201), 15 animals were set in the MPTP model group in which the mice was intragastrically administrated with the compound PL201 (PL201+MPTP). […]
On Day 3 of the experiment, the pole-climbing test of mice was carried out to evaluate the motor coordination ability of the mice. […] The time taken by the mice to turn from head upwards to head downwards completely was recorded as the time to turn around, and the time taken by the mice from moving downwards to all limbs reaching the bottom of the pole was recorded as the time to climb down. Time exceeded 30 seconds was recorded as 30 seconds. […]

Human neural stem cells = experiment: Neural stem cell proliferation under Aβ by EdU incorporation; assay type: cell-based; conditions: Aβ 5 μM pre-treatment 30 minutes, PL201 30 μM, 72 hours
Protocol: As the main pathogenic protein of AD, Aβ inhibits neural stem cell proliferation. In this example, the inventors detected the levels of human neural stem cell proliferation by EdU incorporation, and tested whether PL201 can alleviate the inhibition effect of Aβ on the proliferation of neural stem cells.
Human neural stem cells (3 L) were cultured in DMEM/F12 (containing N2/B27 and 10 ng/ml bFGF), plated to 96 well plates and incubated for 24 hours, then Aβ (5 μM) was added to pre-treat the cells for 30 minutes, and then PL201 (30 μM) was added. After co-incubation for 72 hours, the proliferation level of neural stem cells was detected by EdU staining.

With `COc1cc(/C=C/C(=O)OC2OC(C)C(O)C(O)C2O)ccc1O` [PL201, (α-L-rhamnopyranosyl) ferulic acid ester] the “time to climb down” value (MPTP mice model) was “reduced”, the “time to turn around” value (MPTP mice model) was “reduced” and the “proliferation level of neural stem cells (EdU staining)” value (Human neural stem cells) was “significantly alleviate the inhibitory effect of Aβ”.
